Assays:
human ACSS2 = target: T1, human ACSS2 (Homo sapiens, UniProt Q9NR19); assay: ACSS2 enzyme assay (acetyl-CoA formation, LC-MS/MS); type: biochemical; conditions: cytosolic fraction of BT474 cells as ACSS2 source; 100 μM acetate, CoA and ATP; 2 h at 25° C.; read-out: Enzyme Activity (IC50 range)
T1 construct: The cytosolic fraction of BT474 cells was used as a source of the ACSS2 enzyme; endogenous in cells; host or cells: BT474 cells (cytosolic fraction)
Experimental: Novel compounds were screened in a human ACSS2 enzyme assay. Briefly, the ACSS2 enzyme reaction was monitored by directly measuring acetyl-CoA formation. The cytosolic fraction of BT474 cells was used as a source of the ACSS2 enzyme. A short protocol for this assay is provided below.
Preparation of Cytosolic Fraction from BT474 Cells
9×10^6 cells were harvested by trypsinization followed by centrifugation. The cell pellet was washed with PBS and dissolved in 500 μl STM buffer (50 mM Tris-HCl pH7.4, 250 mM sucrose, 5 mM MgCl2 & protease-phosphatase inhibitor cocktail) and homogenized at 600-1000 rpm for 1 min. on ice followed by incubation for 30 min. with intermittent vortexing. Supernatant was collected by centrifugation at 800 g for 15 min. at 4° C. Cytosolic fraction was prepared by further centrifugation of the supernatant at 12000 g for 15 min. at 4° C. Total protein content of the cytosolic fraction was estimated & diluted to 1 mg/ml concentration in storage buffer (25 mM Tris-HCl pH7.4, 1 mM MgCl2, 1 mM DTT & 10% glycerol) and stored at −80° C. for further use.
100 ng of cytosolic fraction in buffer composed of 25 mM Tris-HCl pH7.4 1 mM MgCl2, 1 mM DTT & 0.05% Tween20 was preincubated with desired concentrations of novel compounds for 5 min. maintaining 1% DMSO. Reaction was started with addition of substrate mix (100 μM of acetate, CoA and ATP) and incubated for 2 h at 25° C. with constant shaking at 500 rpm. Post incubation the reaction was terminated by addition of 10% TCA followed by 5 fold dilution in water. The reaction mixture was centrifuged at 800 g for 10 min. at RT and acetyl-CoA detected in supernatant by LC-MS/MS (QTrap5500 ABSCIEX).

[1] = tested on: [14C] acetate incorporation in macromolecules, BT474 cells; assay: Cell based [14C] acetate incorporation assay; conditions: Homo sapiens, BT-474, 3 h at 37° C., read-out: Cellular Activity (IC50 range)
Experimental: Cell Based [^14C] Acetate Incorporation Assay
In the cellular assay, ACSS2 inhibitors were screened against [^14C] acetate incorporation in macromolecules. 4×10^4 BT474 cells were plated in 96 well plates in growth media composed of DMEM & 10% FBS and incubated overnight in a 37° C., 5% CO2 incubator. The following day the cells were washed in HBSS and the assay was performed in 100 μl of HBSS. 50 μl of 4× compound in 4% DMSO was added to the cells and preincubated for 10 min. at 37° C. 50 μl of acetate solution (0.1 μCi ^14C acetate+10 μM ^12C acetate) was added to each well of the plate and incubated for 3 h in a 37° C., 5% CO2 incubator. Following incubation, cells were harvested with water on polyethylene imine (PEI) presoaked GF/C filtermat, air dried and radioactive count were recorded in Trilux micro beta Liquid Scintillation Counter (PerkinElmer).

T1 sequence (Q9NR19 whole entry): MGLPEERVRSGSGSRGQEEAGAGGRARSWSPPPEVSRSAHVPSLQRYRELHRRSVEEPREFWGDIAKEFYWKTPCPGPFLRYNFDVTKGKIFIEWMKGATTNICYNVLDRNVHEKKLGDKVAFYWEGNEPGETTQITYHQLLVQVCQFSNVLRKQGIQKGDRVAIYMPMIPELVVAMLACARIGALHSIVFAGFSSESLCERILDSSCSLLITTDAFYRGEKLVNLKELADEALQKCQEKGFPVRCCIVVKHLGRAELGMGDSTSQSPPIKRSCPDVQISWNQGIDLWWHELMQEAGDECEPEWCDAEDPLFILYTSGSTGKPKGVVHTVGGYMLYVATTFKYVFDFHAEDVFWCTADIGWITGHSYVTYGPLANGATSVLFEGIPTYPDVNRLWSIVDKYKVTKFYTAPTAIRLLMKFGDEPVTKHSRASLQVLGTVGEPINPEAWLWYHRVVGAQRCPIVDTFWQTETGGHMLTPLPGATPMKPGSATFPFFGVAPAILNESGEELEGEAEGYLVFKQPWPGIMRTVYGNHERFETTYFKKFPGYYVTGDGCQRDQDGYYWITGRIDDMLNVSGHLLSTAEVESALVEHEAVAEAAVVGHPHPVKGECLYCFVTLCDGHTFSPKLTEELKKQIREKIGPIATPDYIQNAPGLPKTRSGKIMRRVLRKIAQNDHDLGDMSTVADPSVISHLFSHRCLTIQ

SMILES | IC50 (human ACSS2) | IC50 [1]
Cn1cc(NC(=O)Nc2ccc3nc(-c4ccccc4)c(-c4ccccc4)cc3c2)cn1 [Example 144, 1-(2,3-diphenylquinolin-6-yl)-3-(1-methyl-1H-pyrazol-4-yl)urea] | ≤ 1000 nM | < 100 nM
CCC(O)CNC(=O)Nc1ccc2ncc(-c3ccccc3)c(C(N)=O)c2c1 (centres unmarked) [Example 71, 6-(3-(2-hydroxybutyl)ureido)-3-phenylquinoline-4-carboxamide] | ≤ 1000 nM | > 10000 nM
CCC(O)CNC(=O)Nc1ccc2nc(-c3ccccc3)c(-c3ccccc3OC)cc2c1 (centres unmarked) [Example 10, 1-(2-hydroxybutyl)-3-(3-(2-methoxyphenyl)-2-phenylquinolin-6-yl)urea] | < 100 nM | < 100 nM
CCC(=O)CCC(=O)Nc1ccc2nc(-c3ccccc3)c(-c3ccccc3)cc2c1 [Example 125, N-(2,3-diphenyl-quinolin-6-yl)-4-oxohexan-amide] | < 100 nM | < 100 nM
CCCCC(F)(F)C(=O)Nc1ccc2nc(-c3ccccc3)c(-c3ccccc3)cc2c1 [Example 122, N-(2,3-diphenyl-quinolin-6-yl)-2,2-difluoro-hexanamide] | ≤ 10000 nM | > 10000 nM
CCC(O)CNC(=O)Nc1ccc2nc(-c3ccccc3N(C)C)c(-c3ccccc3F)cc2c1 (centres unmarked) [Example 33, 1-(2-(2-(dimethylamino)phenyl)-3-(2-fluorophenyl)quinolin-6-yl)-3-(2-hydroxybutyl) urea] | < 100 nM | < 100 nM
CCC(O)CNC(=O)Nc1ccc2nc(-c3ccc(-c4ccccc4)cc3)c(-c3ccccc3)cc2c1 (centres unmarked) [Example 55, 1-(2-([1,1′-biphenyl]-4-yl)-3-phenylquinolin-6-yl)-3-(2-hydroxybutyl) urea] | ≤ 10000 nM | > 10000 nM
CC[C@H](O)CNC(=O)Nc1ccc2nc(-c3ccccc3)c(-c3ccccc3F)cc2c1 [Example 67, (S)-1-(3-(2-fluorophenyl)-2-phenylquinolin-6-yl)-3-(2-hydroxybutyl) urea] | < 100 nM | < 100 nM

Other lines, results leading:

IC50 (human ACSS2) | IC50 [1] | SMILES
< 100 nM | < 100 nM | CCC(O)CCC(=O)Nc1ccc2nc(-c3ccccc3)c(-c3ccccc3)cc2c1 (centres unmarked) [Example 127, N-(2,3-diphenyl-quinolin-6-yl)-4-hydroxy-hexanamide]
< 100 nM | ≤ 1000 nM | CCC(O)CNC(=O)Nc1ccc2nc(C)c(-c3cccnc3)cc2c1 (centres unmarked) [Example 79, 1-(2-hydroxybutyl)-3-(2-methyl-3-(pyridin-3-yl)quinolin-6-yl)urea]
< 100 nM | < 100 nM | CCc1nc2ccc(NC(=O)NCC(O)CC)cc2cc1-c1ccccc1 (centres unmarked) [Example 61, 1-(2-ethyl-3-phenylquinolin-6-yl)-3-(2-hydroxybutyl) urea]
< 100 nM | ≤ 1000 nM | CC[C@@H](O)CNC(=O)Nc1ccc2nc(C)c(-c3ccccc3F)cc2c1-c1ccc[nH]c1=O [Example 111, (R)-1-(3-(2-fluorophenyl)-2-methyl-5-(2-oxo-1,2-dihydropyridin-3-yl)quinolin-6-yl)-3-(2-hydroxybutyl) urea]
< 100 nM | < 100 nM | CCC(F)(F)CNC(=O)Nc1ccc2nc(C)c(-c3ccccc3)cc2c1 [Example 105, 1-(2,2-difluorobutyl)-3-(2-methyl-3-phenylquinolin-6-yl)urea]
< 100 nM | < 100 nM | CC[C@@H](O)CNC(=O)Nc1ccc2nc(C)c(-c3ccccc3F)cc2c1 [Example 100, (R)-1-(3-(2-fluorophenyl)-2-methylquinolin-6-yl)-3-(2-hydroxybutyl) urea]
< 100 nM | < 100 nM | CCCCNC(=O)Nc1ccc2nc(-c3ccccc3OC)c(-c3ccccc3F)cc2c1 [Example 37, 1-butyl-3-(3-(2-fluorophenyl)-2-(2-methoxyphenyl)quinolin-6-yl)urea]
< 100 nM | < 100 nM | CC[C@@H](O)CNC(=O)Nc1ccc2nc(-c3ccccc3)c(-c3ccccc3)c(C)c2c1 [Example 103, (R)-1-(2-hydroxybutyl)-3-(4-methyl-2,3-diphenylquinolin-6-yl)urea]

— patent US20220298115A1, “SMALL MOLECULE INHIBITORS OF ACETYL COENZYME A SYNTHETASE SHORT CHAIN 2 (ACSS2)” (Curadev Pharma Pvt. Ltd., priority 2019, published 2022)
